Tests used:
[1] = system: CCRF-CEM cells; experiment: Resazurin viability assay, CCRF-CEM cells (combination, Bliss Independence CI); assay type: cell-based, human; details: 0.5 μm of BKM120 as used in combination, FIG. 1, CCRF-CEM
Experimental: The CCRF-CEM (ATCC CCL-119) cell line is derived from T lymphoblasts from peripheral blood of a child with acute leukaemia. The cells were grown according to the recommendations of the supplier. The culture medium, RPMI-1640, was supplemented with 10 μL/mL glutamine, 2 μL/mL gentamicin and 10% foetal bovine serum (FBS) to make complete growth medium (CGM). The cells were incubated at 37 °C in a humidified atmosphere with 5% CO2. Passaging was conducted every 2 - 4 days to maintain a cell density below 2.5×10^6 cells/mL, and thus ensure a continuous proliferation. Cells were allowed to acclimatise for two weeks after establishment before they were utilised for experimental purposes and discarded after three months. […] Resazurin was metabolized for 1-2 h (37° C., 5% CO2) before fluorescence was read at 544 nm excitation and 590 nm emission wavelength (BioTek Synergy HT). […] Statistical significance between treatments were determined using Welch's ANOVA with Tamhane's T2 correction for multiple comparisons, p<0.05 was considered statistically significant. […] The combination index was calculated using: [formula] • where CI is the combination index, EA represent the effect of drug A given as a monotherapy, EB represent the effect of drug B given as a monotherapy and EAB represent drugs A and B given in combination at the same concentrations as the monotherapies. […]

[2] = system: MDA-MB-436 cells; experiment: Resazurin viability assay, MDA-MB-436 cells (monotherapy and combination); assay type: cell-based, human; details: for IC50: MDA-MB-436, 72 h treatment, n = 3
Source text: The MDA-MB-436 cell line was from ATCC. The MDA-MB-436 cell line was established from a pleural effusion of a patient with metastatic breast adenocarcinoma. The cell line is of triple negative breast cancer, however the MDA-MB-436 cell line is classified as mesenchymal stem-like with high enrichment of genes for biological processes such as cell motility (Rho pathway), cellular differentiation and growth pathways (ALK pathway, TGF-β signalling and Wnt/β-catenin pathway). MDA-MB-436 cells were maintained in RPMI-1640 culturing media supplemented with 10% FBS, 0.3 mg/mL L-glutamine and 0.1 mg/mL gentamicin, 10 mcg/mL insulin and incubated in 37° C. humidified atmosphere. Sub-culture using trypsin-EDTA 0.5% every 3-4 days with cell density of 2-3 million cells in a T75 cm2 culturing flask to ensure actively proliferating cells. The MDA-MB-436 cells was seeded in 1×10^4 cells/well. After 24 h of cultivation, when the cells were ˜30-50% confluent, the medium was replaced with serum free growth medium without gentamycin to ensure synchronization of the cells and to increase cell sensitivity to treatment. The MDA-MB-436 cells were starved in starvation media with insulin. The medium was replaced with fresh serum free medium with or without compound 2, NVP-BKM120 (Cayman Chemicals, US). The cells were observed under the microscope to evaluate possible morphology changes and signs of stress before the addition of resazurin according to the manufacturer's instructions (RnD Systems, UK). MDA-MB-436 cells were incubated for 72 h. Resazurin was metabolized for 1-2 h (37° C., 5% CO2) before fluorescence was read at 544 nm excitation and 590 nm emission wavelength (BioTek Synergy HT). The experiments were performed in series of eight wells per treatment and repeated 2-3 times. […] Statistical significance between treatments were determined using Welch's ANOVA with Tamhane's T2 correction for multiple comparisons, p<0.05 was considered statistically significant.

SMILES	expected inhibition [1]	viability at 0.4 µM ([2]; Homo sapiens, 72 h, BKM120 0.4 μM alone, MDA-MB-436, relative to untreated control set to 100%)	viability at 1.1 µM ([2]; Homo sapiens, 72 h, BKM120 1.1 μM alone, MDA-MB-436, relative to untreated control set to 100%)	IC50 ([2]; Homo sapiens)	viability at 5 µM ([2]; Homo sapiens, 72 h, Cmpd 2 5 μM alone, MDA-MB-436, relative to untreated control set to 100%)	viability at 6.5 µM ([2]; Homo sapiens, 72 h, Cmpd 2 6.5 μM alone, MDA-MB-436, relative to untreated control set to 100%)	viability at 7.5 µM ([2]; Homo sapiens, 72 h, Cmpd 2 7.5 μM alone, MDA-MB-436, relative to untreated control set to 100%)	viability at 10 µM ([2]; Homo sapiens, 72 h, Cmpd 2 10 μM alone, MDA-MB-436, relative to untreated control set to 100%)	concentration at which viability was reduced significantly compared to the untreated control ([2]; MDA-MB-436, 72 h, control set to 100% viability)
Nc1cc(C(F)(F)F)c(-c2cc(N3CCOCC3)nc(N3CCOCC3)n2)cn1 [BKM120, buparlisib, reference compound]	10%	84 ± 7%	45 ± 10%	1.2 µM	–	–	–	–	–
CCCCCCCOc1ccc(OCC(=O)c2nc(C(=O)OC)cs2)cc1 [Compound 2]	–	–	–	10.4 µM	92 ± 3%	82 ± 6%	76 ± 4%	60 ± 10%	≥ 9 µM
